Assay results as given in paper PMC9127750, “Structure-based design of CDC42 effector interaction inhibitors for the treatment of cancer” (Cell reports, 2022).

Test system: WM3248 melanoma cells, 486 antibodies
Experiment: Reverse phase protein arrays (RPPA);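 for RPPA ACC1.R.C: ratio of treated to vehicle (0 µM) normalized linear protein signal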;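 for RPPA AMPK.a2 pS345.R.V: ratio of treated to vehicle (0 µM) normalized linear protein signal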;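 for RPPA AMPKa pT172.R.C: ratio of treated to vehicle (0 µM) normalized linear protein signal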;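 for RPPA ASNS.R.V: ratio of treated to vehicle (0 µM) normalized linear protein signal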;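 for RPPA AceCS1.R.V: ratio of treated to vehicle (0 µM) normalized linear protein signal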;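 for RPPA Akt1.R.V: ratio of treated to vehicle (0 µM) normalized linear protein signal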;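 for RPPA Atg5.R.C: ratio of treated to vehicle (0 µM) normalized linear protein signal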;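 for RPPA Bim.R.V: ratio of treated to vehicle (0 µM) normalized linear protein signal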
Type: cell-based, Human
Conditions: 10 uM
Text: Pellets were snap frozen in liquid nitrogen and shipped to MD Anderson Cancer Center core RPPA facility for RPPA analysis (Table S5). Three biological replicates for each sample were generated.
Nomenclatures on the RPPA heatmaps: name_of_antibody.species_of_antibody.status_of_antibody. V - antibody validated; C - validation of antibody in progress; Q - antibody nonspecific; E – under evaluation; antibodies raised in M - mouse, G - goat, R - rabbit, or T - rat.

Structure (SMILES): CN(C)c1cccc(Nc2cc(-c3ccccc3)nc(C3CCNCC3)n2)c1 [ARN22089, N1,N1-dimethyl-N3-(6-phenyl-2-(piperidin-4-yl)pyrimidin-4-yl)benzene-1,3-diamine]
- RPPA B7.H4.R.C (10W1): 1.035
- RPPA B.Raf.R.C (10W1): 0.916
- RPPA B.Raf_pS445.R.V (10W1): 0.953
- RPPA BAP1.M.V (10W1): 0.957
- RPPA BCL2A1.R.V (10W1): 1.947
- RPPA BMK1.Erk5_pT218_Y220.R.V (10W1): 0.926
- RPPA BRCA1.M.C (10W1): 1.059
- RPPA BRD4.R.V (10W1): 1.134
- RPPA Bad_pS112.R.V (10W1): 1.118
- RPPA Bax.R.V (10W1): 1.004
- RPPA Bcl2.R.C (10W1): 1.048
- RPPA Bcl.xL.R.V (10W1): 1.112
- RPPA Beclin.R.C (10W1): 1.064
- RPPA Bim.R.V (10W1): 1.024
- RPPA X4E.BP1.R.V (10W1): 0.716
- RPPA X4E.BP1_pS65.R.V (10W1): 0.893
- RPPA X4E.BP1_pT37_T46.R.V (10W1): 0.934
- RPPA X14.3.3.zeta.R.V (10W1): 1.029
- RPPA X14.3.3βR.V (10W1): 1.012
- RPPA X14.3.3εM.C (10W1): 0.955
- RPPA X53BP1.R.V (10W1): 0.984
- RPPA b.Catenin.R.V (10W1): 0.868
- RPPA b.Catenin_pT41_S45.R.V (10W1): 1.019
- RPPA c.Abl.R.V (10W1): 1.140
- RPPA c.Abl_pY412.R.C (10W1): 0.995
- RPPA A.Raf_pS299.R.C (10W3): 0.989
- RPPA ACC1.R.C (10W3): 0.761
- RPPA ACC_pS79.R.V (10W3): 0.652
- RPPA ACLY_pS455.R.V (10W3): 1.060
- RPPA ACSL1.R.V (10W3): 0.743
- RPPA ACVRL1.R.C (10W3): 1.047
- RPPA ADAR1.M.V (10W3): 0.974
- RPPA AMPK.a2_pS345.R.V (10W3): 1.012
- RPPA AMPKa.R.C (10W3): 0.993
- RPPA AMPKa_pT172.R.C (10W3): 0.770
- RPPA AR.R.V (10W3): 0.980
- RPPA ARID1A.R.C (10W3): 1.025
- RPPA ASNS.R.V (10W3): 1.126
- RPPA ATM.R.V (10W3): 0.864
- RPPA ATM_pS1981.R.V (10W3): 1.016
- RPPA ATP5A.M.C (10W3): 0.859
- RPPA ATP5H.R.V (10W3): 1.047
- RPPA ATR.R.V (10W3): 0.992
- RPPA ATRX.R.C (10W3): 0.863
- RPPA ATR_pS428.R.C (10W3): 1.076
- RPPA AceCS1.R.V (10W3): 0.950
- RPPA Akt1.R.V (10W3): 1.034
- RPPA Akt1_pS473.R.V (10W3): 1.099
- RPPA Akt2.R.V (10W3): 0.982
- RPPA Akt2_pS474.R.C (10W3): 1.062
- RPPA Akt.R.V (10W3): 0.811
- RPPA Akt_pS473.R.V (10W3): 1.223
- RPPA Akt_pT308.R.V (10W3): 1.196
- RPPA Ambra1_pS52.R.C (10W3): 0.979
- RPPA Annexin.I.M.V (10W3): 0.896
- RPPA Annexin.VII.M.V (10W3): 0.983
- RPPA Atg5.R.C (10W3): 0.843
- RPPA Atg7.R.V (10W3): 0.986
- RPPA Aurora.A.R.C (10W3): 1.109
- RPPA Aurora.ABC_pT288_pT232_pT198.R.C (10W3): 0.933
- RPPA Aurora.B.R.V (10W3): 1.003
- RPPA Axl.R.V (10W3): 0.953
- RPPA B7.H3.R.C (10W3): 1.031
- RPPA B.Raf_pS445.R.V (10W3): 1.006
- RPPA BAP1.M.V (10W3): 1.063
- RPPA BCL2A1.R.V (10W3): 1.172
- RPPA BMK1.Erk5_pT218_Y220.R.V (10W3): 0.935
- RPPA BRCA1.M.C (10W3): 0.989
- RPPA BRD4.R.V (10W3): 0.839
- RPPA Bad_pS112.R.V (10W3): 1.059
- RPPA Bak.R.C (10W3): 1.018
- RPPA Bax.R.V (10W3): 0.972
- RPPA Bcl.xL.R.V (10W3): 1.015
- RPPA Beclin.R.C (10W3): 0.995
- RPPA BiP.GRP78.M.C (10W3): 1.013
- RPPA Bid.R.C (10W3): 1.021
- RPPA Bim.R.V (10W3): 0.900
- RPPA X4E.BP1.R.V (10W3): 0.590
- RPPA X4E.BP1_pS65.R.V (10W3): 1.148
- RPPA X4E.BP1_pT37_T46.R.V (10W3): 1.133
- RPPA X14.3.3.zeta.R.V (10W3): 1.033
- RPPA X14.3.3βR.V (10W3): 1.026
- RPPA X14.3.3εM.C (10W3): 1.009
- RPPA X53BP1.R.V (10W3): 0.920
- RPPA b.Actin.R.C (10W3): 1.024
- RPPA b.Catenin.R.V (10W3): 0.914
- RPPA b.Catenin_pT41_S45.R.V (10W3): 1.012
- RPPA c.Abl.R.V (10W3): 1.061
- RPPA c.Abl_pY412.R.C (10W3): 0.963
- RPPA c.IAP2.R.C (10W3): 1.023
- C.Raf.R.C RPPA level (Average): 0.940
- C.Raf_pS338.R.V RPPA level (Average): 0.978
- CA9.R.C RPPA level (Average): 0.980
- CD2.M.C RPPA level (Average): 1.035
- CD4.R.V RPPA level (Average): 0.935
- CD5.M.C RPPA level (Average): 1.029
- CD20.R.C RPPA level (Average): 1.026
- CD26.R.V RPPA level (Average): 0.948
- CD29.M.V RPPA level (Average): 1.016
- CD31.M.V RPPA level (Average): 1.034
- CD38.R.C RPPA level (Average): 0.977
- CD44.R.C RPPA level (Average): 1.010
- CD45.M.V RPPA level (Average): 1.023
- CD49b.M.V RPPA level (Average): 1.014
- CD68.M.C RPPA level (Average): 1.034
- CD134.R.V RPPA level (Average): 1.019
- CD171.M.V RPPA level (Average): 0.898
- CDK1_pT14.R.C RPPA level (Average): 0.932
- CDK9.R.V RPPA level (Average): 1.014
- CDT1.R.V RPPA level (Average): 1.048
- CENP.A.R.V RPPA level (Average): 1.017
- CHD1L.R.V RPPA level (Average): 1.034
- CIITA.R.C RPPA level (Average): 1.018
- COG3.R.V RPPA level (Average): 1.062
- CRABP1.R.C RPPA level (Average): 1.050
- CREB_pS133.R.C RPPA level (Average): 1.130
- Calnexin.R.V RPPA level (Average): 1.046
- Caspase.3.cleaved.R.C RPPA level (Average): 0.944
- Caspase.7.cleaved..R.C RPPA level (Average): 0.997
- Caspase.8.M.Q RPPA level (Average): 0.957
- Caspase.8.cleaved.R.C RPPA level (Average): 0.988
- Caveolin.1.R.V RPPA level (Average): 0.941
- Cdc6.R.V RPPA level (Average): 0.971
- Cdc42.R.C RPPA level (Average): 0.986
- Chk1.M.C RPPA level (Average): 1.082
- Chk1_pS345.R.C RPPA level (Average): 0.961
- Chk2.M.V RPPA level (Average): 1.026
- Chk2_pT68.R.C RPPA level (Average): 1.020
- Claudin.7.R.V RPPA level (Average): 1.203
- Collagen.VI.R.V RPPA level (Average): 1.025
- Complex.II.Subunit.M.V RPPA level (Average): 1.017
- Connexin.43.R.C RPPA level (Average): 1.031
- Coup.TFII.R.C RPPA level (Average): 0.889
- Cox2.R.C RPPA level (Average): 0.972
- Cox.IV.R.V RPPA level (Average): 0.954
- Creb.R.C RPPA level (Average): 0.986
- CtIP.R.V RPPA level (Average): 0.940
- Cyclin.B1.R.V RPPA level (Average): 0.940
- Cyclin.D1.R.C RPPA level (Average): 1.061
- Cyclin.D3.M.V RPPA level (Average): 1.058
- Cyclin.E1.R.V RPPA level (Average): 1.006
- Cyclophilin.F.M.V RPPA level (Average): 0.965
- D.a.Tubulin.R.V RPPA level (Average): 0.976
- DAPK2.R.C RPPA level (Average): 0.971
- DDB.1.R.V RPPA level (Average): 0.857
- DDR1.R.V RPPA level (Average): 1.028
- DDR1_pY513.R.C RPPA level (Average): 1.051
- DJ1.R.V RPPA level (Average): 1.016
- DM.Histone.H3.R.V RPPA level (Average): 0.928
- DNA.Ligase.IV.R.C RPPA level (Average): 1.003
- DNA_POLG.R.V RPPA level (Average): 1.013
- RPPA A.Raf.R.V (Average): 0.917
- RPPA ACC1.R.C (Average): 0.919
- RPPA ACC_pS79.R.V (Average): 0.878
- RPPA ACLY_pS455.R.V (Average): 1.125
- RPPA ACSL1.R.V (Average): 0.971
- RPPA ADAR1.M.V (Average): 1.083
- RPPA ALKBH5.R.V (Average): 1.027
- RPPA AMPK.a2_pS345.R.V (Average): 1.001
- RPPA AMPKa.R.C (Average): 0.982
- RPPA AMPKa_pT172.R.C (Average): 1.263
- RPPA AR.R.V (Average): 0.922
- RPPA ASNS.R.V (Average): 0.960
